The supplement of paper PMC10307832

Columns and labels:
[1] = compound: O=C(O)C(Cc1ccccc1[N+](=O)[O-])=NNc1nc(-c2ccc(Cl)c(Cl)c2)cs1 (mixture of isomers) [4EGI-1] + Cc1cc(Nc2cc(N3CCN(C)CC3)nc(Sc3ccc(NC(=O)C4CC4)cc3)n2)n[nH]1 [Tozasertib] (partner 0.1 µM); experiment: relative viability (nuclei count vs DMSO), 5 days (fraction); higher = more cells survive
In short: (§1)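 Relative viability is defined as nuclei in treated wells over nuclei in vehicle wells. Duplicate plates were run and medians reported. Lung cancer cell lines in 1536-well plates were dosed by pin tool one day after seeding, with one drug or with a fixed anchor-drug dose plus five library-drug doses (not always all listed) in √10 steps, and nuclei were counted after 5 days.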

[2] = compound: CN1CCN(CC1)C2=CC(=C(C=C2)NC3=NC=C4C(=N3)N(C5=CC=CC=C5C(=O)N4C)C)OC [XMD8-85] + COc1cc2c(Oc3ccc(NC(=O)C4(C(=O)Nc5ccc(F)cc5)CC4)cc3F)ccnc2cc1OCCCN1CCOCC1 [Foretinib] (partner 0.25 µM); experiment: as above
In short: as §1

Cell Line: NCI-H522
- relative viability ([1]; first compound 0.5 µM): 0.558
- relative viability ([1]; first compound 1.581 µM): 0.491
- relative viability ([1]; first compound 5 µM): 0.595
- relative viability ([1]; first compound 15.81 µM): 0.558
- relative viability ([1]; first compound 50 µM): 0.457

Cell Line: NCI-H596
- relative viability ([2]; first compound 0.08 µM): 0.844
- relative viability ([2]; first compound 0.253 µM): 0.85
- relative viability ([2]; first compound 0.8 µM): 0.983
- relative viability ([2]; first compound 2.53 µM): 0.642
- relative viability ([2]; first compound 8 µM): 0.502
- relative viability ([1]; first compound 0.5 µM): 1.01
- relative viability ([1]; first compound 1.581 µM): 0.769
- relative viability ([1]; first compound 5 µM): 0.987
- relative viability ([1]; first compound 15.81 µM): 0.949
- relative viability ([1]; first compound 50 µM): 0.783

Cell Line: NCI-H647
- relative viability ([2]; first compound 0.08 µM): 1.37
- relative viability ([2]; first compound 0.253 µM): 1.3
- relative viability ([2]; first compound 0.8 µM): 1.34
- relative viability ([2]; first compound 2.53 µM): 1.04
- relative viability ([2]; first compound 8 µM): 0.865
- relative viability ([1]; first compound 0.5 µM): 0.262
- relative viability ([1]; first compound 5 µM): 0.35
- relative viability ([1]; first compound 15.81 µM): 0.199
- relative viability ([1]; first compound 50 µM): 0.133

Cell Line: NCI-H650
- relative viability ([2]; first compound 0.08 µM): 1.05
- relative viability ([2]; first compound 0.253 µM): 0.997
- relative viability ([2]; first compound 0.8 µM): 0.947
- relative viability ([2]; first compound 2.53 µM): 1.04
- relative viability ([2]; first compound 8 µM): 0.685
- relative viability ([1]; first compound 0.5 µM): 0.858
- relative viability ([1]; first compound 5 µM): 0.777
- relative viability ([1]; first compound 15.81 µM): 0.644
- relative viability ([1]; first compound 50 µM): 0.626

Cell Line: NCI-H661
- relative viability ([2]; first compound 0.08 µM): 1.16
- relative viability ([2]; first compound 0.253 µM): 1.09
- relative viability ([2]; first compound 0.8 µM): 0.989
- relative viability ([2]; first compound 2.53 µM): 1.07
- relative viability ([2]; first compound 8 µM): 0.91
- relative viability ([1]; first compound 0.5 µM): 0.336
- relative viability ([1]; first compound 1.581 µM): 0.34
- relative viability ([1]; first compound 5 µM): 0.34
- relative viability ([1]; first compound 15.81 µM): 0.355
- relative viability ([1]; first compound 50 µM): 0.283

Cell Line: NCI-H727
- relative viability ([2]; first compound 0.08 µM): 0.895
- relative viability ([2]; first compound 0.253 µM): 1.05
- relative viability ([2]; first compound 0.8 µM): 0.823
- relative viability ([2]; first compound 2.53 µM): 0.553
- relative viability ([2]; first compound 8 µM): 0.693
- relative viability ([1]; first compound 0.5 µM): 0.595
- relative viability ([1]; first compound 1.581 µM): 0.765
- relative viability ([1]; first compound 5 µM): 0.502
- relative viability ([1]; first compound 15.81 µM): 0.499
- relative viability ([1]; first compound 50 µM): 0.585

Cell Line: NCI-H838
- relative viability ([2]; first compound 0.08 µM): 0.941
- relative viability ([2]; first compound 0.253 µM): 1
- relative viability ([2]; first compound 0.8 µM): 1.08
- relative viability ([2]; first compound 2.53 µM): 0.91
- relative viability ([2]; first compound 8 µM): 0.569
- relative viability ([1]; first compound 0.5 µM): 0.261
- relative viability ([1]; first compound 5 µM): 0.263
- relative viability ([1]; first compound 15.81 µM): 0.235
- relative viability ([1]; first compound 50 µM): 0.172

Cell Line: NCI-H1299
- relative viability ([2]; first compound 0.08 µM): 1.13
- relative viability ([2]; first compound 0.253 µM): 1.1
- relative viability ([2]; first compound 0.8 µM): 1.1
- relative viability ([2]; first compound 2.53 µM): 1.11
- relative viability ([2]; first compound 8 µM): 0.86

Cell Line: NCI-H1355
- relative viability ([2]; first compound 0.08 µM): 1.02
- relative viability ([2]; first compound 0.253 µM): 1.01
- relative viability ([2]; first compound 0.8 µM): 0.977
- relative viability ([2]; first compound 2.53 µM): 0.878
- relative viability ([2]; first compound 8 µM): 0.811
- relative viability ([1]; first compound 0.5 µM): 0.551
- relative viability ([1]; first compound 1.581 µM): 0.551
- relative viability ([1]; first compound 5 µM): 0.559
- relative viability ([1]; first compound 15.81 µM): 0.429
- relative viability ([1]; first compound 50 µM): 0.291

Cell Line: NCI-H1395
- relative viability ([2]; first compound 0.08 µM): 1.03
- relative viability ([2]; first compound 0.253 µM): 0.974
- relative viability ([2]; first compound 0.8 µM): 1.05
- relative viability ([2]; first compound 2.53 µM): 0.925
- relative viability ([2]; first compound 8 µM): 0.8
- relative viability ([1]; first compound 0.5 µM): 0.868
- relative viability ([1]; first compound 1.581 µM): 0.637
- relative viability ([1]; first compound 5 µM): 0.764
- relative viability ([1]; first compound 15.81 µM): 0.711
- relative viability ([1]; first compound 50 µM): 0.477

Cell Line: NCI-H1437
- relative viability ([2]; first compound 0.08 µM): 1.3
- relative viability ([2]; first compound 0.253 µM): 1.28
- relative viability ([2]; first compound 0.8 µM): 1.32
- relative viability ([2]; first compound 2.53 µM): 1.08
- relative viability ([2]; first compound 8 µM): 0.867
- relative viability ([1]; first compound 0.5 µM): 0.416
- relative viability ([1]; first compound 1.581 µM): 0.378
- relative viability ([1]; first compound 5 µM): 0.399
- relative viability ([1]; first compound 15.81 µM): 0.318
- relative viability ([1]; first compound 50 µM): 0.175

Cell Line: NCI-H1563
- relative viability ([2]; first compound 0.08 µM): 1.05
- relative viability ([2]; first compound 0.253 µM): 0.935
- relative viability ([2]; first compound 0.8 µM): 0.836
- relative viability ([2]; first compound 2.53 µM): 0.892
- relative viability ([2]; first compound 8 µM): 0.767

Cell Line: NCI-H1623
- relative viability ([2]; first compound 0.08 µM): 0.986
- relative viability ([2]; first compound 0.253 µM): 0.816
- relative viability ([2]; first compound 0.8 µM): 0.789
- relative viability ([2]; first compound 2.53 µM): 0.857
- relative viability ([2]; first compound 8 µM): 0.667
- relative viability ([1]; first compound 0.5 µM): 0.481
- relative viability ([1]; first compound 1.581 µM): 0.421
- relative viability ([1]; first compound 5 µM): 0.535
- relative viability ([1]; first compound 15.81 µM): 0.36
- relative viability ([1]; first compound 50 µM): 0.33

Cell Line: NCI-H1648
- relative viability ([1]; first compound 0.5 µM): 0.604
- relative viability ([1]; first compound 1.581 µM): 0.623
- relative viability ([1]; first compound 5 µM): 0.532
- relative viability ([1]; first compound 15.81 µM): 0.466
- relative viability ([1]; first compound 50 µM): 0.314

Cell Line: NCI-H1650
- relative viability ([2]; first compound 0.08 µM): 1.12
- relative viability ([2]; first compound 0.253 µM): 1.19
- relative viability ([2]; first compound 0.8 µM): 1.17
- relative viability ([2]; first compound 2.53 µM): 0.863
- relative viability ([2]; first compound 8 µM): 0.32
- relative viability ([1]; first compound 0.5 µM): 0.474
- relative viability ([1]; first compound 5 µM): 0.413
- relative viability ([1]; first compound 15.81 µM): 0.327
- relative viability ([1]; first compound 50 µM): 0.267

Cell Line: NCI-H1651
- relative viability ([2]; first compound 0.08 µM): 0.857
- relative viability ([2]; first compound 0.253 µM): 0.769
- relative viability ([2]; first compound 0.8 µM): 0.712
- relative viability ([2]; first compound 2.53 µM): 0.799
- relative viability ([2]; first compound 8 µM): 0.631
- relative viability ([1]; first compound 0.5 µM): 0.704
- relative viability ([1]; first compound 1.581 µM): 0.518
- relative viability ([1]; first compound 5 µM): 0.678
- relative viability ([1]; first compound 15.81 µM): 0.383
- relative viability ([1]; first compound 50 µM): 0.372

Cell Line: NCI-H1666
- relative viability ([2]; first compound 0.08 µM): 0.991
- relative viability ([2]; first compound 0.253 µM): 0.988
- relative viability ([2]; first compound 0.8 µM): 0.963
- relative viability ([2]; first compound 2.53 µM): 0.893
- relative viability ([2]; first compound 8 µM): 0.886
- relative viability ([1]; first compound 0.5 µM): 0.61
- relative viability ([1]; first compound 1.581 µM): 0.535
- relative viability ([1]; first compound 5 µM): 0.647
- relative viability ([1]; first compound 15.81 µM): 0.448
- relative viability ([1]; first compound 50 µM): 0.328

Cell Line: NCI-H1703
- relative viability ([2]; first compound 0.08 µM): 0.353
- relative viability ([2]; first compound 0.253 µM): 0.363
- relative viability ([2]; first compound 0.8 µM): 0.33
- relative viability ([2]; first compound 2.53 µM): 0.374
- relative viability ([2]; first compound 8 µM): 0.35

Cell Line: NCI-H1734
- relative viability ([2]; first compound 0.08 µM): 0.858
- relative viability ([2]; first compound 0.253 µM): 0.853
- relative viability ([2]; first compound 0.8 µM): 0.896
- relative viability ([2]; first compound 2.53 µM): 0.842
- relative viability ([2]; first compound 8 µM): 0.629
- relative viability ([1]; first compound 0.5 µM): 0.263
- relative viability ([1]; first compound 1.581 µM): 0.27
- relative viability ([1]; first compound 5 µM): 0.263
- relative viability ([1]; first compound 15.81 µM): 0.288
- relative viability ([1]; first compound 50 µM): 0.214
